Usually T/C stands for the ratio of treated to control.

Assay [1] addresses T1, human PGI2 receptors (hIP) (Homo sapiens, UniProt P43119).
T1 construct: expressed in transfected cells; host or cells: CHO-K1
Nature of the assay: Method C: effect on epoprostenol-cAMP production curve in CHO/hIP cells (left shift value). As to conditions: Table 4, concentration of test compound that halves the EC50 of epoprostenol. Format: cell-based. Here is the method:
The effect of a test compound on the cAMP production curve with respect to the IP agonist epoprostenol (manufactured by GlaxoSmithKline) was investigated using CHO-K1 cells (CHO/hIP cells) in which human PGI2 receptors (hIP) are stably expressed.
(§1) An amount of 5 μL of a mixture (diluted in F-12 culture medium (manufactured by GIBCO) including 0.1% BSA) of epoprostenol dissolved in DMSO and a test compound dissolved in DMSO was dispensed in advance into a 384-well black microplate, and 5 μL of CHO/hIP cells suspended at a concentration of 1.4×10^6 cells/mL in F-12 culture medium including 0.1% BSA were added to the microplate. After 40 minutes of incubation at room temperature, the amount of cAMP was measured using a cAMP assay kit (cAMP HiRange, manufactured by Cisbio Bioassays). Specifically, 5 μL of a cAMP-d2 solution (including a cell lysate) from the kit were added and the reaction was stopped, then 5 μL of a fluorescence-labeled cAMP antibody solution from the kit were added and incubation was performed for 1 hour at room temperature, after which fluorescence was measured using a PHERAstar plate reader (manufactured by BMG) in HTRF (registered trademark) mode. The amount of cAMP in each well was calculated from a cAMP calibration curve obtained using a standard sample, and an epoprostenol-cAMP production curve for the presence of various concentrations of the test compound was created.
(Changes in cAMP serve as a functional read-out for many G protein-coupled receptors.)

Assay [2] addresses T1, human PGI2 receptors (hIP). The experiment in a line: Method B: positive allosteric modulator activity, cAMP in CHO/hIP cells with 1 nM epoprostenol. Format: cell-based. To be noted: cAMP relative to 1 nM epoprostenol alone. The method, then: The positive allosteric modulator activity of a test compound was measured as a change in the amount of intracellular cyclic AMP (cAMP) in the presence of 1 nM of the IP agonist epoprostenol (manufactured by GlaxoSmithKline), using CHO-K1 cells (CHO/hIP cells) in which human PGI2 receptors (hIP) are stably expressed.
as §1, with “and” for “and an epoprostenol-cAMP production curve for”, “activity” for “presence”, “each” for “various concentrations of the”, “is noted below as a ratio T/C (%) based on the amount of cAMP for 1 nM of epoprostenol alone.” for “was created.”

T1 sequence (P43119 whole entry): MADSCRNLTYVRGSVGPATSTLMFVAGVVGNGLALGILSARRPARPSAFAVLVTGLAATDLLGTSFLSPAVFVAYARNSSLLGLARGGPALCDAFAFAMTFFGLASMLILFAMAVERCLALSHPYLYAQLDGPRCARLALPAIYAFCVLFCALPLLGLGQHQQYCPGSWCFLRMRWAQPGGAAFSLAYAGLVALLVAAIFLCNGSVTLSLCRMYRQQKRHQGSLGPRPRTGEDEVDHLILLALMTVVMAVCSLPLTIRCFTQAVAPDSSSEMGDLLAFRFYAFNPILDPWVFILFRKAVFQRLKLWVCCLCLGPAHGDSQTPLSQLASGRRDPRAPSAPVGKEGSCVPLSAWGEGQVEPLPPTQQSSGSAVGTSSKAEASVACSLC

Turning to `CC(C)(C)n1nnnc1C(c1ccc(Br)cc1)N1CCc2ccccc2C1` (stereo not shown) [Example 4], the left shift value in assay [1] amounted to 35.7 µM. Also, the T/C in assay [2] (test concentration 5 uM) was 100.1%.

Consider `Cc1ccc(C(c2nnnn2C(C)(C)C)N2CCc3ccccc3C2)cc1` (stereo not shown) [Example 9], for which, in assay [1], the left shift value is 13.4 µM. Besides, the T/C in assay [2] (test concentration 10 uM) was 153.2%.

`COc1ncccc1C(c1nnnn1C(C)(C)C)N1CCc2ccccc2C1` (stereo not shown) [Example 14]: the left shift value in assay [1] amounted to 17.7 µM. The molecule further came in with a T/C in assay [2] (test concentration 10 uM) of 132.1%.

As for `CC(C)(C)n1nnnc1C(c1ccc(O)cc1)N1CCc2ccccc2C1` (stereo not shown) [Example 5], in assay [1], the left shift value came out at 10.9 µM. Further, in assay [2] (test concentration 10 uM), the T/C was found to be 156.4%.

With `Cc1ccccc1C(c1nnnn1C1(C)CCCCCC1)N1CCc2ccccc2C1` (stereo not shown) [Example 46], the left shift value in assay [1] was 267.0 µM. The T/C in assay [2] (test concentration 10 uM) amounted to 106.2%.

As for `COc1ccccc1C(c1nnnn1C1(C)CCCC1)N1CCc2ccccc2C1` (stereo not shown) [Example 22], the left shift value in assay [1] amounted to 8.3 µM. Besides, the T/C in assay [2] (test concentration 10 uM) was found to be 149.6%.

For `CC(C)(C)n1nnnc1C(c1ccccc1)N1CCc2ccccc2C1` (stereo not shown) [Example 39], the left shift value in assay [1] stood at 12.3 µM. Besides, in assay [2] (test concentration 10 uM), the T/C is listed as 144.4%.

On to `COc1csc(C(c2nnnn2C(C)(C)C)N2CCc3ccccc3C2)c1` (stereo not shown) [Example 44], for which the left shift value in assay [1] came to 7.7 µM. In assay [2] (test concentration 5 uM), this molecule gave a T/C of 143.8%.

With `COc1cc2ccccc2cc1C(c1nnnn1C(C)(C)C)N1CCc2ccccc2C1` (stereo not shown) [Example 23], the left shift value in assay [1] was 119.6 µM. In assay [2] (test concentration 10 uM), this molecule gave a T/C of 106.4%.

In the case of `CCOc1ccccc1C(C1=NNCN1C(C)(C)C)N1CCc2ccc(O)cc2C1` (stereo not shown) [Example 56], the left shift value in assay [1] was 117.3 µM. Besides, the T/C in assay [2] (test concentration 10 uM) came to 101.0%.

On to `CC(C)(C)n1nnnc1C(c1ccccc1O)N1CCc2ccccc2C1` (stereo not shown) [Example 57, 2-((1-tert-butyl-1H-tetrazol-5-yl)(3,4-dihydroisoquinolin-2(1H)-yl)methyl)phenol], for which, in assay [1], the left shift value came out at 1.4 µM. The molecule further yielded a T/C in assay [2] (test concentration 10 uM) of 256.5%.

Regarding `CC(C)(C)n1nnnc1C(c1ccccc1[N+](=O)[O-])N1CCc2ccc(F)cc2C1` (stereo not shown) [Example 30], the left shift value in assay [1] worked out at 269.8 µM. This molecule also had a T/C in assay [2] (test concentration 10 uM) of 100.4%.

Take `COc1ccc(C(c2nnnn2C(C)(C)C)N2CCc3ccccc3C2)c(F)c1` (stereo not shown) [Example 8]: the left shift value in assay [1] was 7.2 µM. In assay [2] (test concentration 10 uM), the T/C stood at 184.2%.

Turning to `CC(C)(C)n1nnnc1C(c1ccccc1N)N1CCc2ccccc2C1` (stereo not shown) [Example 26], in assay [1], the left shift value is 163.7 µM. Moreover, the T/C in assay [2] (test concentration 10 uM) came out at 105.5%.

`COc1cc[nH]c1C(c1nnnn1C(C)(C)C)N1CCc2ccccc2C1` (stereo not shown) [Example 43]: in assay [1], the left shift value was 1.2 µM. Further, in assay [2] (test concentration 10 uM), the T/C is 267.8%.

`Cc1ccc2c(c1)CN(C(c1ccccc1C)c1nnnn1C(C)(C)C)CC2` (stereo not shown) [Example 24]: the left shift value in assay [1] amounted to 61.25 µM. This molecule returned a T/C in assay [2] (test concentration 10 uM) of 116.3%.

In the case of `CC(C)(C)n1nnnc1C(c1ccccc1OCc1ccccc1)N1CCc2ccccc2C1` (stereo not shown) [Example 1, 2-((2-(benzyloxy)phenyl)(1-tert-butyl-1H-tetrazol-5-yl)methyl)-1,2,3,4-tetrahydroisoquinoline], in assay [1], the left shift value is 24.9 µM. In assay [2] (test concentration 10 uM), this molecule displayed a T/C of 151.7%.

Regarding `CC(C)(C)n1nnnc1C1c2ccc(F)cc2SC2Cc3ccccc3CN21` (stereo not shown) [Example 7], the left shift value in assay [1] worked out at 24.1 µM. The T/C in assay [2] (test concentration 10 uM) stood at 127.6%.

As to `Cc1ccccc1C(c1nnnn1C1(C)CCCCC1)N1CCc2ccccc2C1` (stereo not shown) [Example 42], the left shift value in assay [1] came out at 14.5 µM. The T/C in assay [2] (test concentration 10 uM) was found to be 142.5%.

As to `CC(C)(C)n1nnnc1C(c1ccco1)N1CCc2ccccc2C1` (stereo not shown) [Example 33], in assay [1], the left shift value came out at 38.4 µM. The T/C in assay [2] (test concentration 10 uM) came to 119.7%.

With `CC(C)(C)n1nnnc1C(c1ccoc1)N1CCc2ccccc2C1` (stereo not shown) [Example 34], the left shift value in assay [1] came out at 11.7 µM. Further, the T/C in assay [2] (test concentration 10 uM) is listed as 145.9%.

For the molecule `CSc1ccccc1C(c1nnnn1C(C)(C)C)N1CCc2ccccc2C1` (stereo not shown) [Example 13], in assay [1], the left shift value stood at 3.1 µM. In assay [2] (test concentration 10 uM), this molecule gave a T/C of 218.3%.

As to `CC(C)(C)n1nnnc1C(c1ccccc1N)N1CCc2ccccc2C1` (stereo not shown) [Example 58, 2-((1-tert-butyl-1H-tetrazol-5-yl)(3,4-dihydroisoquinolin-2(1H)-yl)methyl)aniline], the left shift value in assay [1] turned out to be 78.3 µM. In addition, in assay [2] (test concentration 10 uM), the T/C was found to be 102.7%.

For the molecule `COc1cccc(C(c2nnnn2C(C)(C)C)N2CCc3ccccc3C2)c1` (stereo not shown) [Example 15], the left shift value in assay [1] is 32.4 µM. Moreover, the T/C in assay [2] (test concentration 10 uM) turned out to be 122.4%.

As for `CC(C)(C)n1nnnc1C(C1=CCC=C1)N1CCc2ccccc2C1` (stereo not shown) [Example 32], the left shift value in assay [1] stood at 8.4 µM. Moreover, the T/C in assay [2] (test concentration 10 uM) turned out to be 153.8%.

As to `Cc1ccc(C(c2nnnn2C(C)(C)C)N2CCc3ccccc3C2)cc1` (stereo not shown) [Example 3], the left shift value in assay [1] came out at 71.4 µM. The T/C in assay [2] (test concentration 5 uM) is listed as 100.6%.

Regarding `CC(C)(C)n1nnnc1C(c1c[nH]c2ccccc12)N1CCc2ccccc2C1` (stereo not shown) [Example 36], the left shift value in assay [1] was 5.7 µM. In assay [2] (test concentration 10 uM), this molecule displayed a T/C of 172.6%.

`COc1cccc(OC)c1C(c1nnnn1C(C)(C)C)N1CCc2ccccc2C1` (stereo not shown) [Example 37]: in assay [1], the left shift value came to 71.1 µM. In assay [2] (test concentration 10 uM), this molecule had a T/C of 104.9%.

Turning to `CC(C)(C)n1nnnc1C(c1ccccc1F)N1CCc2ccc(Cl)cc2C1` (stereo not shown) [Example 16], in assay [1], the left shift value is 232.2 µM. For the same molecule, the T/C in assay [2] (test concentration 10 uM) is 104.6%.

Regarding `Cc1ccccc1C(c1nnnn1C(C)(C)C)N1CCc2ccccc2C1` (stereo not shown) [Example 25], the left shift value in assay [1] was found to be 5.5 µM. In assay [2] (test concentration 10 uM), this molecule registered a T/C of 177.2%.

As for `CC(C)(C)n1nnnc1C(c1ccccc1Br)N1CCc2ccccc2C1` (stereo not shown) [Example 2], the left shift value in assay [1] was determined as 15.5 µM. Besides, the T/C in assay [2] (test concentration 10 uM) is listed as 152.5%.

Consider `Cc1ccc2c(c1)CN(C(c1ccccc1C)c1nnnn1C(C)(C)C)CC2` (stereo not shown) [Example 27], for which, in assay [1], the left shift value was 15.2 µM. The molecule also returned a T/C in assay [2] (test concentration 5 uM) of 99.8%.

On to `CC(C)(C)n1nnnc1C(C1=CC=CC1)N1CCc2ccccc2C1` (stereo not shown) [Example 31], for which, in assay [1], the left shift value came out at 3.5 µM. This molecule also had a T/C in assay [2] (test concentration 10 uM) of 186.2%.

Turning to `COc1ccccc1C(c1nnnn1C1C2CC3CC(C2)CC1C3)N1CCc2ccccc2C1` (stereo not shown) [Example 20], in assay [1], the left shift value stood at 11.1 µM. This molecule gave a T/C in assay [2] (test concentration 5 uM) of 126.3%.

Consider `CSc1ccccc1C(c1nnnn1C1(C)CCCCCC1)N1CCc2ccccc2C1` (stereo not shown) [Example 47], for which the left shift value in assay [1] came to 25.4 µM. In assay [2] (test concentration 10 uM), this molecule displayed a T/C of 121.9%.

On to `COc1cc(F)ccc1C(c1nnnn1C(C)(C)C)N1CCc2ccccc2C1` (stereo not shown) [Example 38], for which the left shift value in assay [1] came to 15.1 µM. For the same molecule, the T/C in assay [2] (test concentration 10 uM) is recorded as 147.0%.

For the molecule `COc1ccccc1C(c1nnnn1C1(C)CCCCC1)N1CCc2ccccc2C1` (stereo not shown) [Example 21], in assay [1], the left shift value stood at 2.0 µM. The same molecule yielded a T/C in assay [2] (test concentration 10 uM) of 229.7%.

In the case of `CC(C)(C)n1nnnc1C(c1ccc[nH]1)N1CCc2ccccc2C1` (stereo not shown) [Example 35], in assay [1], the left shift value came out at 28.5 µM. For the same molecule, the T/C in assay [2] (test concentration 10 uM) was found to be 121.8%.

In the case of `COc1ccccc1C(c1nnnn1C1(C)CCCCCC1)N1CCc2ccccc2C1` (stereo not shown) [Example 45], the left shift value in assay [1] came to 5.7 µM. In addition, the T/C in assay [2] (test concentration 5 uM) came out at 144.3%.

With `CC(C)(C)n1nnnc1C(c1ccc(Cl)cc1)N1CCc2ccccc2C1` (stereo not shown) [Example 10], the left shift value in assay [1] came to 110.9 µM. Also, the T/C in assay [2] (test concentration 10 uM) was 117.0%.

As for `Cc1ccccc1C(c1nnnn1C(C)(C)C)N1CCc2c(Cl)cccc2C1` (stereo not shown) [Example 29], the left shift value in assay [1] worked out at 15.2 µM. In addition, the T/C in assay [2] (test concentration 10 uM) was determined as 135.5%.

As to `COc1ccc(C(c2nnnn2C(C)(C)C)N2CCc3ccccc3C2)c(OC)c1` (stereo not shown) [Example 12], the left shift value in assay [1] was 10.4 µM. Moreover, in assay [2] (test concentration 10 uM), the T/C came out at 155.2%.

Molecule `CC(C)(C)n1nnnc1C(c1cc2ccccc2s1)N1CCc2ccccc2C1` (stereo not shown) [Example 49] displayed a T/C in assay [2] (test concentration 10 uM) of 104.7%.

These data come from patent US20160368895A1, “PULMONARY HYPERTENSION TREATING AGENT” (THE UNIVERSITY OF TOKYO, priority 2013, published 2016).
